ChEMBL document CHEMBL6087394, “Immune Checkpoint-Modulating Photosensitizer That Targets BRD4 for Cancer Photoimmunotherapy” (J Med Chem, 2024)
pIC50: −log10 of the molar value. The source made the active and inactive calls.

Columns and labels:
[1] = Toxicity in BALB/c mouse implanted with mouse 4T1 cells assessed as spleen damage at 2.5 mg/kg, iv measured after 14 days by H and E staining based analysis; type: organism-based; conditions: in vivo, 336 h, time 14 day
[2] = Toxicity in BALB/c mouse implanted with mouse 4T1 cells at 2.5 mg/kg, iv; type: organism-based; conditions: in vivo
MDA-MB-231 [3] = assay: Induction of cell death in human MDA-MB-231 cells assessed as increase in HMGB1 release in nucleus by immunofluorescence staining based analysis; type: functional
4T1 [4] = assay: Antitumor activity against mouse 4T1 cells implanted in female BALB/c mouse assessed as increase in T cell infiltration at 2.5 mg/kg, iv preincubated with compound for 3 hrs followed by light irradiation with 660 nm 300 mW/cm2 for 3 min and measured after 14 days; type: functional, organism-based; conditions: time 20343.0 min
[5] = Toxicity in BALB/c mouse implanted with mouse 4T1 cells assessed as heart damage at 2.5 mg/kg, iv measured after 14 days by H and E staining based analysis; type: organism-based; conditions: in vivo, 336 h, time 14 day
4T1 [6] = assay: Antitumor activity against mouse 4T1 cells implanted in female BALB/c mouse assessed as increase in CD4+ T cells at 2.5 mg/kg, iv preincubated with compound for 3 hrs followed by light irradiation with 660 nm 300 mW/cm2 for 3 min and measured after 14 days; type: functional, organism-based; conditions: time 20343.0 min
MDA-MB-231 [7] = assay: Induction of autophagy in human MDA-MB-231 cells assessed as increase in ratio of LC3-II to LC3-I preincubated with compound for 2 hrs followed by light irradiation with 660 nm 20 mW/cm2 for 10 mins and measured after 12 hrs by Western blot analysis; type: functional, cell-based; conditions: time 850.0 min
MDA-MB-231 [8] = assay: Induction of ROS production in human MDA-MB-231 cells assessed as increase in green fluorescent intensity at 0.1 uM preincubated with compound for 2 hrs followed by light irradiation for 10 mins in presence of tiron by DCFH-DA probe based flow cytometry; type: functional, cell-based; conditions: time 130.0 min
MDA-MB-231 [9] = assay: Induction of pyroptosis in human MDA-MB-231 cells assessed as effect on caspase-1 expression at 0.1 uM preincubated with compound for 2 hrs followed by light irradiation with 660 nm 20 mW/cm2 for 10 mins and measured after 24 hrs by Western blot analysis; type: functional, cell-based; conditions: time 1570.0 min
[10] = Toxicity in BALB/c mouse implanted with mouse 4T1 cells assessed as liver damage at 2.5 mg/kg, iv measured after 14 days by H and E staining based analysis; type: organism-based; conditions: in vivo, 336 h, time 14 day
[11] = Toxicity in BALB/c mouse implanted with mouse 4T1 cells assessed as kidney damage at 2.5 mg/kg, iv measured after 14 days by H and E staining based analysis; type: organism-based; conditions: in vivo, 336 h, time 14 day
MDA-MB-231 [12] = assay: Induction of pyroptosis in human MDA-MB-231 cells assessed as increase in cleaved caspase -3 expression at 0.1 uM preincubated with compound for 2 hrs followed by light irradiation with 660 nm 20 mW/cm2 for 10 mins and measured after 24 hrs by Western blot analysis; type: functional, cell-based; conditions: time 1570.0 min
MDA-MB-231 [13] = assay: Induction of autophagy in human MDA-MB-231 cells assessed as downregulation p62 expression preincubated with compound for 2 hrs followed by light irradiation with 660 nm 20 mW/cm2 for 10 mins and measured after 24 hrs by Western blot analysis; type: functional, cell-based; conditions: time 1570.0 min
MDA-MB-231 [14] = assay: Cytotoxicity against human MDA-MB-231 cells assessed as reduction in cell viability upto 10 uM incubated for 24 hrs by CCK-8 assay; type: functional, cell-based
MDA-MB-231 [15] = assay: Down regulation of PD-L1 expression in human MDA-MB-231 cells incubated for 24 hrs by Western blot analysis; type: functional, cell-based; conditions: dose 0.5-2.5 µM
MDA-MB-231 [16] = assay: Induction of pyroptosis in human MDA-MB-231 cells assessed as formation of large bubbles on plasma membrane at 0.25 uM preincubated with compound for 2 hrs followed by light irradiation with 660 nm 20 mW/cm2 for 10 mins and measured after 24 hrs by CLSM imaging analysis; type: functional, cell-based; conditions: time 1570.0 min
[17] = target: T1, Bromodomain-containing protein 4 (Homo sapiens, UniProt O60885); assay: Inhibition of BRD4 in human MDA-MB-231 cells assessed as downregulation of c-Myc expression at 0.5 to 2.5 uM incubated for 24 hrs by Western blot analysis; type: cell-based; conditions: dose 0.5-2.5 µM
MDA-MB-231 [18] = assay: Induction of pyroptosis in human MDA-MB-231 cells assessed as cell swelling at 0.25 uM preincubated with compound for 2 hrs followed by light irradiation with 660 nm 20 mW/cm2 for 10 mins and measured after 24 hrs by CLSM imaging analysis; type: functional, cell-based; conditions: time 1570.0 min
MDA-MB-231 [19] = assay: Induction of ferroptosis in human MDA-MB-231 cells assessed as increase in intracellular LPO accumulation by measuring green fluorescence intensity at 0.1 uM preincubated with compound for 2 hrs followed by light irradiation with 660 nm 20 mW/cm2 for 10 mins and measured after 12 hrs; type: functional, cell-based; conditions: time 850.0 min
MDA-MB-231 [20] = assay: Effect on LDH level in human MDA-MB-231 cells preincubated with compound for 2 hrs followed by light irradiation with 660 nm 20 mW/cm2 for 10 mins and measured after 24 hrs; type: functional, cell-based; conditions: time 1570.0 min
4T1 [21] = assay: Antitumor activity against mouse 4T1 cells implanted in female BALB/c mouse assessed as inhibition of tumor growth at 2.5 mg/kg, iv preincubated with compound for 3 hrs followed by light irradiation with 660 nm 300 mW/cm2 for 3 min and measured after 14 days; type: functional, organism-based; conditions: time 20343.0 min
[22] = Photophysical property of the compound assessed as maximum fluorescent emission peak at by fluorescence at 10 uM spectrophotometric analysis; type: physicochemical
MDA-MB-231 [23] = assay: Induction of DNA damage in human MDA-MB-231 cells assessed as upregulation of gamma-H2AX expression preincubated with compound for 2 hrs followed by light irradiation with 660 nm 20 mW/cm2 for 10 mins and measured after 24 hrs by Western blot analysis; type: functional, cell-based; conditions: time 1570.0 min
[24] = target: T1, Bromodomain-containing protein 4; assay: Inhibition of BRD4 (unknown origin) incubated for 120 mins by TR-FRET assay
MDA-MB-231 [25] = assay: Down regulation of PD-L1 expression in human MDA-MB-231 cells at 0.1 uM preincubated with compound for 2 hrs followed by light irradiation with 660 nm 20 mW/cm2 for 10 mins and measured after 24 hrs by Western blot analysis; type: functional, cell-based; conditions: time 1570.0 min
MDA-MB-231 [26] = assay: Induction of ROS production in human MDA-MB-231 cells assessed as increase in green fluorescent intensity at 0.1 uM preincubated with compound for 2 hrs followed by light irradiation for 10 mins by DCFH-DA probe based flow cytometry; type: functional, cell-based; conditions: time 130.0 min
[27] = Induction of singlet oxygen production in PBS buffer assessed as decrease in absorption signal at 410 nm under light irradiation with 660 nm 20 mW/cm2 by ABDA based microplate reader analysis relative to control; type: functional
[28] = Biodistribution in female BALB/c mouse tumor at 2.5 mg/kg, iv measured at 1 hr; type: ADME, organism-based, Neoplasm; conditions: in vivo
[29] = Biodistribution in female BALB/c mouse tumor at 2.5 mg/kg, iv measured at 3 hrs; type: ADME, organism-based, Neoplasm; conditions: in vivo
[30] = Phototoxicity against human MDA-MB-231 cells assessed as reduction in cell viability preincubated with compound for 2 hrs followed by light irradiation with 660 nm 20 mW/cm2 for 10 mins and measured after 24 hrs by CCK-8 assay; type: functional, cell-based; conditions: MDA-MB-231, light or radiation study
MDA-MB-231 [31] = assay: Induction of ferroptosis in human MDA-MB-231 cells assessed as decrease in GSH level at 0.1 uM preincubated with compound for 2 hrs followed by light irradiation with 660 nm 20 mW/cm2 for 10 mins and measured after 12 hrs; type: functional, cell-based; conditions: time 850.0 min
MDA-MB-231 [32] = assay: Induction of cell death in human MDA-MB-231 cells assessed as increase in bright red signal at 0.5 uM preincubated with compound for 2 hrs followed by light irradiation with 660 nm 20 mW/cm2 for 10 mins and measured after 12 hrs by Calcein-AM staining based inverted fluorescence microscopic analysis; type: functional; conditions: time 850.0 min
MDA-MB-231 [33] = assay: Induction of pyroptosis in human MDA-MB-231 cells assessed as increase in GSDME-N expression at 0.25 uM preincubated with compound for 2 hrs followed by light irradiation with 660 nm 20 mW/cm2 for 10 mins and measured after 24 hrs by Western blot analysis; type: functional, cell-based; conditions: time 1570.0 min
MDA-MB-231 [34] = assay: Induction of ferroptosis in human MDA-MB-231 cells assessed as reduction in GPX4 expression at 0.1 uM preincubated with compound for 2 hrs followed by light irradiation with 660 nm 20 mW/cm2 for 10 mins and measured after 12 hrs by Western blot analysis; type: functional, cell-based; conditions: time 850.0 min
MDA-MB-231 [35] = assay: Effect on IL-1beta level in human MDA-MB-231 cells preincubated with compound for 2 hrs followed by light irradiation with 660 nm 20 mW/cm2 for 10 mins and measured after 24 hrs by ELISA analysis; type: functional, cell-based; conditions: time 1570.0 min
[36] = Induction of ROS generation in PBS buffer assessed as increase in superoxide anion radical level by measuring increase in DHR123 fluorescence intensity at 5 uM irradiated with 660 nm 20 mW/cm2 light for upto 7 mins by DHR123 probe based fluorescence spectra analysis; type: functional
4T1 [37] = assay: Antitumor activity against mouse 4T1 cells implanted in female BALB/c mouse assessed as increase in CD8+ T cells at 2.5 mg/kg, iv preincubated with compound for 3 hrs followed by light irradiation with 660 nm 300 mW/cm2 for 3 min and measured after 14 days; type: functional, organism-based; conditions: time 20343.0 min
MDA-MB-231 [38] = assay: Induction of ROS production in human MDA-MB-231 cells assessed as increase in green fluorescent intensity at 0.1 uM preincubated with compound for 2 hrs followed by light irradiation for 10 mins in presence of NaN3 by DCFH-DA probe based flow cytometry; type: functional, cell-based; conditions: time 130.0 min
[39] = Drug uptake in human MDA-MB-231 cells assessed as increase in fluorescence intensity at 2.5 uM measured after 2 hrs by flow cytometry analysis; type: ADME, cell-based; conditions: mda-mb-231, 2 h
MDA-MB-231 [40] = assay: Induction of pyroptosis in human MDA-MB-231 cells assessed as effect on cleaved GSDMD expression at 0.1 uM preincubated with compound for 2 hrs followed by light irradiation with 660 nm 20 mW/cm2 for 10 mins and measured after 24 hrs by Western blot analysis; type: functional, cell-based; conditions: time 1570.0 min
MDA-MB-231 [41] = assay: […] in human MDA-MB-231 cells assessed as decrease in RAD51 expression preincubated with compound for 2 hrs followed by light irradiation with 660 nm 20 mW/cm2 for 10 mins and measured after 24 hrs by Western blot analysis; type: functional, cell-based; conditions: time 1570.0 min
4T1 [42] = assay: Antitumor activity against mouse 4T1 cells implanted in female BALB/c mouse assessed as inhibition of tumor growth at 2.5 mg/kg, iv; type: functional, organism-based

CCN(CC)c1ccc2nc3c(cc(NCc4ccc(NC(=O)C[C@H]5N=C(c6ccc(Cl)cc6)c6c(sc(C)c6C)-n6c(C)nnc65)cc4)c4ccccc43)[s+]c2c1.[Cl-]
Active: Activity [22] | Drug uptake [28] | Drug uptake [29] | Drug uptake [39]
7.35: pIC50 [24]
inactive: Activity (MDA-MB-231 [9]) | Activity (MDA-MB-231 [38]) | Activity (MDA-MB-231 [40])
active: Activity (MDA-MB-231 [3]) | Activity (4T1 [4]) | Activity (4T1 [6]) | Activity (MDA-MB-231 [7]) | Activity (MDA-MB-231 [8]) | Activity (MDA-MB-231 [12]) | Activity (MDA-MB-231 [13]) | Activity (MDA-MB-231 [14]) | Activity (MDA-MB-231 [15]) Dose-dependent-effect | Activity (MDA-MB-231 [16]) | inhibition [17] | Activity (MDA-MB-231 [18]) | Activity (MDA-MB-231 [19]) | Activity (MDA-MB-231 [20]) | Activity (4T1 [21]) | Activity (MDA-MB-231 [23]) | Activity (MDA-MB-231 [25]) | Activity (MDA-MB-231 [26]) | Activity [27] | Activity (MDA-MB-231 [31]) | Activity (MDA-MB-231 [32]) | Activity (MDA-MB-231 [33]) | Activity (MDA-MB-231 [34]) | Activity (MDA-MB-231 [35]) | Activity [36] | Activity (4T1 [37]) | Activity (MDA-MB-231 [41]) | Activity (4T1 [42])
Non-toxic: Activity [1] | Activity [2] | Activity [5] | Activity [10] | Activity [11]
6.96: pIC50 [30]
